# Source: US5380715A, “Ap4 A as a hypotensive agent” (Fujirebio Inc., priority 1992, dated 1995)
# Entries after “also recorded” stand apart in the source; their conditions may differ.
# Assays:
# rats = assay: Effects on cerebral blood flow, blood pressure and heart rate in anesthetized rats; assay type: in vivo, male SD rats; details: rat
# Method: Male SD rats (Charles River Japan Inc.) were anesthetized with intravenous urethane (0.5 g/kg)+α-chloralose (80 mg/kg).
# A femoral artery was catheterized to monitor the blood pressure and heart rate, while a femoral vein was catheterized for the aministration of each of the test drugs.
# The head of each rat was fixed to a brain position fixing device and a hole was made at a top portion of the cranium. A laser blood flow probe was mounted on the cranium so as to touch the surface of the cerebral cortex through the hole, whereby the cerebral blood flow thereof was measured. A predetermined amount of Ap4A was applied by bolus injection and by infusion.
# blood pressure = assay: Gradual hypotension under halothane or urethane + α-chloralose anesthesia; assay type: in vivo; details: halothane anesthesia; urethane (0.5 g/kg) + α-chloralose (80 mg/kg) anesthesia; words
# [1] = test system: rabbit platelet aggregation; assay: Platelet aggregate dispersing effect; assay type: cell-based; details: ADP- and PAF-induced; result in words (FIG. 5)
# Method: Fresh blood samples were collected from male Japanese white rabbits weighing 2-3 kg. Blood was anticoagulated with citric acid (1 ml 3.8% citric acid solution +9 ml blood). These samples were centrifuged at room temperature for 20 min at 200×g to obtained platelet-rich plasma (PRP). Furthermore, the supernatant liquid was centrifuged for 10 min at 1500×g to obtained platelet-poor plasma (PPP). Aggregation of platelests was measured photometrically in a Nihon Kohden hema tracer equipped with a mechanical stirring device and with a chart record. At this time, the chart recorder was calibrated as follows: the light transmission obtained with PPP was set as 100% transmission and the optical density of PRP was taken as 0% transmission. Maximal aggregation, i.e. the maximal change in optical density of the primary wave calculated in percent light transmission. From the study, it was determined that ADP, Ap3A, PAF(platelet activating factor) and collagen induced maximal aggregations at a concentration of 1×10^-5 M, 1×10^-4 M, 1.9×10^-7 M and 5 μg/kg, respectively. In the following studies, these aggregating agents were used at maximal dose. The effect of Ap4A on platelet aggregation by ADP and Ap3A were tested. In this time, Ap4A was pretreated for 1 or 10 min before the addition of aggregating agents. […]
smiles,measurement,setting,value
"Nc1ncnc2c1ncn2[C@@H]1O[C@H](COP(=O)(O)OP(=O)(O)OP(=O)(O)OP(=O)(O)OC[C@H]2O[C@@H](n3cnc4c(N)ncnc43)[C@H](O)[C@@H]2O)[C@@H](O)[C@H]1O [Ap4A, diadenosine 5',5'""-p^1,p^4 -tetraphosphate]",B.P. Δ%,rats; bolus injection 0.1 μg/kg,0%
same,C.B.F. Δ%,rats; bolus injection 0.1 μg/kg,2.7%
same,H.R. Δ%,rats; bolus injection 0.1 μg/kg,4.0%
same,B.P. Δ%,rats; bolus injection 0.3 μg/kg,0%
same,C.B.F. Δ%,rats; bolus injection 0.3 μg/kg,7.9%
same,H.R. Δ%,rats; bolus injection 0.3 μg/kg,-7.0%
same,B.P. Δ%,rats; bolus injection 1 μg/kg,5.0 ± 2.9%
same,C.B.F. Δ%,rats; bolus injection 1 μg/kg,9.3 ± 2.5%
same,H.R. Δ%,rats; bolus injection 1 μg/kg,10.3 ± 10.1%
same,B.P. Δ%,rats; bolus injection 3 μg/kg,-6.2 ± 5.0%
same,C.B.F. Δ%,rats; bolus injection 3 μg/kg,10.0 ± 2.0%
same,H.R. Δ%,rats; bolus injection 3 μg/kg,4.6 ± 3.4%
same,B.P. Δ%,rats; bolus injection 10 μg/kg,-9.9 ± 4.6%
same,C.B.F. Δ%,rats; bolus injection 10 μg/kg,21.7 ± 6.0%
same,H.R. Δ%,rats; bolus injection 10 μg/kg,3.2 ± 2.0%
same,B.P. Δ%,rats; bolus injection 30 μg/kg,-23.2 ± 3.5%
same,C.B.F. Δ%,rats; bolus injection 30 μg/kg,16.8 ± 3.5%
same,H.R. Δ%,rats; bolus injection 30 μg/kg,6.4 ± 1.2%
same,B.P. Δ%,rats; bolus injection 100 μg/kg,-34.4 ± 2.5%
same,C.B.F. Δ%,rats; bolus injection 100 μg/kg,15.8 ± 4.0%
same,H.R. Δ%,rats; bolus injection 100 μg/kg,7.4 ± 3.5%
same,B.P. Δ%,rats; bolus injection 300 μg/kg,-40.5 ± 5.2%
same,C.B.F. Δ%,rats; bolus injection 300 μg/kg,9.8 ± 4.0%
same,H.R. Δ%,rats; bolus injection 300 μg/kg,10.9 ± 4.5%
same,B.P. Δ%,rats; bolus injection 1 mg/kg,-50.4 ± 1.4%
same,C.B.F. Δ%,rats; bolus injection 1 mg/kg,8.5 ± 3.4%
same,H.R. Δ%,rats; bolus injection 1 mg/kg,7.4 ± 6.0%
same,B.P. Δ%,rats; bolus injection 3 mg/kg,-54.0 ± 2.5%
same,C.B.F. Δ%,rats; bolus injection 3 mg/kg,23.7 ± 9.3%
same,H.R. Δ%,rats; bolus injection 3 mg/kg,6.2 ± 21.1%
same,B.P. Δ%,rats; bolus injection 10 mg/kg,-63.5 ± 5.6%
same,C.B.F. Δ%,rats; bolus injection 10 mg/kg,46.3 ± 11.5%
same,H.R. Δ%,rats; bolus injection 10 mg/kg,-78.8 ± 2.7%
same,B.P. Δ%,rats; bolus injection 30 mg/kg,-60.7 ± 7.0%
same,C.B.F. Δ%,rats; bolus injection 30 mg/kg,34.0 ± 16.9%
same,cerebral blood flow,"rats; bolus injection, result in words",improved by bolus injection of Ap4A
same,increase in C.B.F.,"rats; bolus, when about 20-40% fall in blood pressure",10-20%
same,cerebral blood flow,"rats; continuous administration, result in words (FIG. 2)",The same effects were also observed in the continuous administration of Ap4A; also recorded: Cerebral blood flow was increased during continuous administration of Ap4A
same,gradual hypotensive effect,blood pressure,almost the same gradual hypotensive effect
same,platelet aggregate dispersing effect,[1],Both ADP- and PAF-induced platelet aggregations were dispersed; also recorded: dispersing aggregated lumps formed by PAF (platelet activating factor) and ADP
